Values of other authors as cited in US10806792B2 (Mayne Pharma International Pty Ltd., priority 2012, dated 2020).
Where two headings read alike, the source gives them in different places.

How the values were obtained:
[1] = system: typical infecting organisms for specific superficial and systemic mycoses; settings: for MIC RANGE: in µg/mL

CCC(C)n1ncn(-c2ccc(N3CCN(c4ccc(OCC5COC(Cn6cncn6)(c6ccc(Cl)cc6Cl)O5)cc4)CC3)cc2)c1=O (stereo not drawn) [itraconazole]
0.01-8: MIC RANGE ([1]; Epidermophyton floccosum, tinea corporis) | MIC RANGE ([1]; Epidermophyton floccosum, tinea cruris) | MIC RANGE ([1]; Epidermophyton floccosum, tinea manuum) | MIC RANGE ([1]; Epidermophyton floccosum, tinea pedis) | MIC RANGE ([1]; Epidermophyton floccosum, tinea unguium) | MIC RANGE ([1]; Trichophyton sp. (rubrum, interdigitale, mentagrophytes.), tinea manuum) | MIC RANGE ([1]; Trichophyton sp. (rubrum, tonsurans interdigitale, mentagrophytes, concentricim, violaceum et al.), tinea corporis) | MIC RANGE ([1]; Trichophyton sp. (rubrum, tonsurans interdigitale, mentagrophytes, et al.), tinea cruris) | MIC RANGE ([1]; Trichophyton sp. (rubrum, tonsurans interdigitale, mentagrophytes, et al.), tinea pedis) | MIC RANGE ([1]; Trichophyton sp. (rubrum, tonsurans interdigitale, mentagrophytes, et al.), tinea unguium) | MIC RANGE ([1]; Trichophyton sp. (tonsurans violaceum, soudanese, schoenleinii, mentagrophytes, verrucossum, et al.), tinea capitis)
0.016-2: MIC RANGE ([1]; C. parapsilosis, Candidiasis)
0.01-4: MIC RANGE ([1]; Microsporum sp. (audounti, canis, gypseum, ferrugineum et al.), tinea capitis) | MIC RANGE ([1]; Microsporum sp. (canis, et al.), tinea cruris) | MIC RANGE ([1]; Microsporum sp. (canis, et al.), tinea unguium) | MIC RANGE ([1]; Microsporum sp. (canis, gypseum, et al.), tinea corporis) | MIC RANGE ([1]; Microsporum sp. (canis, gypseum, et al.), tinea pedis)
approximately 55%: absolute oral bioavailability (100 mg dose of itraconazole oral solution)
0.03-1: MIC RANGE ([1]; A. terreus complex, Aspergillosis)
MIC90 = 16: MIC90 ([1]; C. glabrata, Candidiasis)
50-70%: reduction of Cmax and AUC in the fasting state vs after a light meal (in vivo)
0.008-8: MIC RANGE ([1]; C. albicans, Candidiasis) | MIC RANGE ([1]; C. kruset, Candidiasis)
0.03-8: MIC RANGE ([1]; A. flavus complex, Aspergillosis) | MIC RANGE ([1]; A. nidulans complex, Aspergillosis) | MIC RANGE ([1]; A. niger complex, Aspergillosis) | MIC RANGE ([1]; C. tropicalis, Candidiasis)
